# Test results: publication PMC7586344, “Discovery of Novel pERK1/2- or β-Arrestin-Preferring 5-HT1A Receptor-Biased Agonists: Diversified Therapeutic-like versus Side Effect Profile” (Journal of Medicinal Chemistry, 2020)
# Assays:
# D5 = target: T1, D5 (Homo sapiens, UniProt P21918); test: Off-target binding screen; settings: read-out: % Inhibition of Control Specific Binding; for inhibition at 1 µM: 1000 nM
# T1 construct: Eurofins Pharma Discovery Services (contract assay)
# α2A = target: T2, α2A (Homo sapiens, UniProt P08913); test: Off-target binding screen; settings: read-out: % Inhibition of Control Specific Binding; for inhibition at 0.01 µM: 10 nM; for inhibition at 0.1 µM: 100 nM; for inhibition at 1 µM: 1000 nM
# T2 construct: Eurofins Pharma Discovery Services (contract screen)
# T2 sequence (P08913 1-465): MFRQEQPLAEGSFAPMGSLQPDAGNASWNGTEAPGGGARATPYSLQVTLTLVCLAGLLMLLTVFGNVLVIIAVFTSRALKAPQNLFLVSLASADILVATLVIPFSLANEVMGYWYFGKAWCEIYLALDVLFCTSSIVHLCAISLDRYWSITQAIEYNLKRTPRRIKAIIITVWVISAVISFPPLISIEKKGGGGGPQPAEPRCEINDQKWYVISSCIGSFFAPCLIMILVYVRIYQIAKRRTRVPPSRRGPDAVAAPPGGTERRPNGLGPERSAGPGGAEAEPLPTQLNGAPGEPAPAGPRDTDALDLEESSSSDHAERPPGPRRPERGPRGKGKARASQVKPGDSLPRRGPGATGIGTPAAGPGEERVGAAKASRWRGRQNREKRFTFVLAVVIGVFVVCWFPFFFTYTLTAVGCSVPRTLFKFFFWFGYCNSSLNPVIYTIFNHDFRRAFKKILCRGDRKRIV
# GABAA1 (α1,β2,γ2) = target: T3, GABAA1 (α1,β2,γ2) (Homo sapiens, UniProt P14867+P18507+P47870); test: Off-target binding screen; settings: 1000 nM, read-out: % Inhibition of Control Specific Binding
# T3 construct: Eurofins Pharma Discovery Services (contract assay)
# hERG channel = target: T4, hERG channel (Homo sapiens, UniProt Q12809); test: hERG-CHO automated patch-clamp; format: cell-based
# T4 construct: host or cells: CHO (hERG-CHO)
# β3 = target: T5, β3 (Homo sapiens, UniProt P13945); test: Off-target binding screen; settings: 1000 nM, read-out: % Inhibition of Control Specific Binding
# T5 construct: Eurofins Pharma Discovery Services (contract assay)
# D3 = target: T6, D3 (Homo sapiens, UniProt P35462); test: Off-target binding screen; settings: read-out: % Inhibition of Control Specific Binding; for inhibition at 0.01 µM: 10 nM; for inhibition at 0.1 µM: 100 nM; for inhibition at 1 µM: 1000 nM
# T6 construct: Eurofins Pharma Discovery Services (contract assay)
# µ (MOR) = target: T7, µ (MOR) (Homo sapiens, UniProt P35372); test: Off-target binding screen; settings: read-out: % Inhibition of Control Specific Binding; for inhibition at 1 µM: 1000 nM
# T7 construct: Eurofins Pharma Discovery Services (contract assay)
# CB2 = target: T8, CB2 (Homo sapiens, UniProt P34972); test: Off-target binding screen; settings: 1000 nM, read-out: % Inhibition of Control Specific Binding
# T8 construct: Eurofins Pharma Discovery Services (contract assay)
# 5-HT1D = target: T9, 5-HT1D (Homo sapiens, UniProt P28221); test: Off-target binding screen; settings: read-out: % Inhibition of Control Specific Binding; for inhibition at 1 µM: 1000 nM
# T9 construct: Eurofins Pharma Discovery Services (contract screen)
# 5-HT6 = target: T10, 5-HT6 (Homo sapiens, UniProt P50406); test: Off-target binding screen; settings: 1000 nM, read-out: % Inhibition of Control Specific Binding
# T10 construct: Eurofins Pharma Discovery Services (contract screen)
# H3 = target: T11, H3 (Homo sapiens, UniProt Q9Y5N1); test: Off-target binding screen; settings: 1000 nM, read-out: % Inhibition of Control Specific Binding
# T11 construct: Eurofins Pharma Discovery Services (contract assay)
# M5 = target: T12, M5 (Homo sapiens, UniProt P08912); test: Off-target binding screen; settings: read-out: % Inhibition of Control Specific Binding; for inhibition at 1 µM: 1000 nM
# T12 construct: Eurofins Pharma Discovery Services (contract assay)
# T12 sequence (P08912 1-532): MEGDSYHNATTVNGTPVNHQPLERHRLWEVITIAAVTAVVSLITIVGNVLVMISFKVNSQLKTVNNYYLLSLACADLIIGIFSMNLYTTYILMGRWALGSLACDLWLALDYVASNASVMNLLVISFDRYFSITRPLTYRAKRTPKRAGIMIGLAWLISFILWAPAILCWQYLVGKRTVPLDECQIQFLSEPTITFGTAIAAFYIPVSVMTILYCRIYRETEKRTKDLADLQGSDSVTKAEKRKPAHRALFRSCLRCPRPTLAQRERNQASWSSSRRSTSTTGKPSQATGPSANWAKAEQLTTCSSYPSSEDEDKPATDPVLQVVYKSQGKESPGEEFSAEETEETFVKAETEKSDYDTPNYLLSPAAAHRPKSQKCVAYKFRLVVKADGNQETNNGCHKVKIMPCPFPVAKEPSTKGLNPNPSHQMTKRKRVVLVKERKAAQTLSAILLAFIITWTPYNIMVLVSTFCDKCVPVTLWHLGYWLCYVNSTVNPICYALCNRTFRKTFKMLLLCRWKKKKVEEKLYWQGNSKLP
# δ (DOR) = target: T13, δ (DOR) (Homo sapiens, UniProt P41143); test: Off-target binding screen; settings: 1000 nM, read-out: % Inhibition of Control Specific Binding
# T13 construct: Eurofins Pharma Discovery Services (contract assay)
# 5-HT1B = target: T14, 5-HT1B (Homo sapiens, UniProt P28222); test: Off-target binding screen; settings: read-out: % Inhibition of Control Specific Binding; for inhibition at 1 µM: 1000 nM
# T14 construct: Eurofins Pharma Discovery Services (contract screen)
# 5-HT7 = target: T15, 5-HT7 (Homo sapiens, UniProt P34969); test: Off-target binding screen; settings: read-out: % Inhibition of Control Specific Binding; for inhibition at 1 µM: 1000 nM
# T15 construct: Eurofins Pharma Discovery Services (contract screen)
# 5-HT5A = target: T16, 5-HT5A (Homo sapiens, UniProt P47898); test: Off-target binding screen; settings: read-out: % Inhibition of Control Specific Binding; for inhibition at 1 µM: 1000 nM
# T16 construct: Eurofins Pharma Discovery Services (contract screen)
# 5-HT2A = target: T17, 5-HT2A (Homo sapiens, UniProt P28223); test: Off-target binding screen; settings: 1000 nM, read-out: % Inhibition of Control Specific Binding
# T17 construct: Eurofins Pharma Discovery Services (contract screen)
# SERT = target: T18, SERT (Homo sapiens, UniProt P31645); test: Off-target binding screen; settings: 1000 nM, read-out: % Inhibition of Control Specific Binding
# T18 construct: Eurofins Pharma Discovery Services
# β2 = target: T19, β2 (Homo sapiens, UniProt P07550); test: Off-target binding screen; settings: 1000 nM, read-out: % Inhibition of Control Specific Binding
# T19 construct: Eurofins Pharma Discovery Services (contract screen)
# σ2 = target: T20, σ2 (Homo sapiens, UniProt Q5BJF2); test: Off-target binding screen; settings: read-out: % Inhibition of Control Specific Binding; for inhibition at 0.01 µM: 10 nM; for inhibition at 0.1 µM: 100 nM; for inhibition at 1 µM: 1000 nM
# T20 construct: Eurofins Pharma Discovery Services (contract assay)
# M1 = target: T21, M1 (Homo sapiens, UniProt P11229); test: Off-target binding screen; settings: 1000 nM, read-out: % Inhibition of Control Specific Binding
# T21 construct: Eurofins Pharma Discovery Services (contract assay)
# T21 sequence (P11229 1-460): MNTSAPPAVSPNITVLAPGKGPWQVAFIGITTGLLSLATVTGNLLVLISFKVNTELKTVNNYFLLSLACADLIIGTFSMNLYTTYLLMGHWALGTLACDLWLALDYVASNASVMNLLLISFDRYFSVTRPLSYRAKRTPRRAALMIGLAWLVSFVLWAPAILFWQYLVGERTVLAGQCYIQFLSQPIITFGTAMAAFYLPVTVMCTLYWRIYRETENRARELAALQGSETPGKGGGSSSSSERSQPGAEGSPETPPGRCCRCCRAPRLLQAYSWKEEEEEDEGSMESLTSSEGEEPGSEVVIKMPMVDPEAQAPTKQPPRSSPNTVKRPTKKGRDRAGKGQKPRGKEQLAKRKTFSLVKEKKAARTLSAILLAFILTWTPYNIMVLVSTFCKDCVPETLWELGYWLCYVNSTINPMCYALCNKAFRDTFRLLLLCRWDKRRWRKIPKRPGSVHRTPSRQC
# T18 sequence (P31645 whole entry, species assumed): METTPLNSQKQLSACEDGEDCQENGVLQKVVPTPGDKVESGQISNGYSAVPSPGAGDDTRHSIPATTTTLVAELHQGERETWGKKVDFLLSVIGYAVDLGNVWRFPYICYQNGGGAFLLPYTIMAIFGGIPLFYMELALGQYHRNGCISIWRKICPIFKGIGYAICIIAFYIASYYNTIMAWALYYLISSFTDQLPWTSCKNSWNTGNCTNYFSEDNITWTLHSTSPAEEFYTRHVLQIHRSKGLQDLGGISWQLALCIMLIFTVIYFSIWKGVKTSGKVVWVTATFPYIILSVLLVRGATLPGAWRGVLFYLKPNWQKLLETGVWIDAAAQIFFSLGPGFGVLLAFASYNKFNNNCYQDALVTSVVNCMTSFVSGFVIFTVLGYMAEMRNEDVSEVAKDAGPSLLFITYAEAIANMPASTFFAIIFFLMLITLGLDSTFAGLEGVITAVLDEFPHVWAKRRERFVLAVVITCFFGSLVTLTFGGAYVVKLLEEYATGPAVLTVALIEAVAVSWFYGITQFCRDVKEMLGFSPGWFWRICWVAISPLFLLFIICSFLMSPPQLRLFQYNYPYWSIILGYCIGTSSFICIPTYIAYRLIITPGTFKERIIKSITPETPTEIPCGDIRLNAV
# T10 sequence (P50406 whole entry, species assumed): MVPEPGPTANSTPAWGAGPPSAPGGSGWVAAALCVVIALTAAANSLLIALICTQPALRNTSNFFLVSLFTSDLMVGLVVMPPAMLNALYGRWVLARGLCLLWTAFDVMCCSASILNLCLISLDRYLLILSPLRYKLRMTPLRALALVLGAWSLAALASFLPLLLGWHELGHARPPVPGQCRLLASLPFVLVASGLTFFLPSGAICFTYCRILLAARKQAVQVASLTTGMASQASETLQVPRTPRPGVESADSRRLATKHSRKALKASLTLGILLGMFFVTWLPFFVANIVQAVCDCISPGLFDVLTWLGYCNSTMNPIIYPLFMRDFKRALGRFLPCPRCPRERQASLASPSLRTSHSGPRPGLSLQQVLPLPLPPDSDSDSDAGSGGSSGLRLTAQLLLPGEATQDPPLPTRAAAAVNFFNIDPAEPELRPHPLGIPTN
# T4 sequence (Q12809 whole entry): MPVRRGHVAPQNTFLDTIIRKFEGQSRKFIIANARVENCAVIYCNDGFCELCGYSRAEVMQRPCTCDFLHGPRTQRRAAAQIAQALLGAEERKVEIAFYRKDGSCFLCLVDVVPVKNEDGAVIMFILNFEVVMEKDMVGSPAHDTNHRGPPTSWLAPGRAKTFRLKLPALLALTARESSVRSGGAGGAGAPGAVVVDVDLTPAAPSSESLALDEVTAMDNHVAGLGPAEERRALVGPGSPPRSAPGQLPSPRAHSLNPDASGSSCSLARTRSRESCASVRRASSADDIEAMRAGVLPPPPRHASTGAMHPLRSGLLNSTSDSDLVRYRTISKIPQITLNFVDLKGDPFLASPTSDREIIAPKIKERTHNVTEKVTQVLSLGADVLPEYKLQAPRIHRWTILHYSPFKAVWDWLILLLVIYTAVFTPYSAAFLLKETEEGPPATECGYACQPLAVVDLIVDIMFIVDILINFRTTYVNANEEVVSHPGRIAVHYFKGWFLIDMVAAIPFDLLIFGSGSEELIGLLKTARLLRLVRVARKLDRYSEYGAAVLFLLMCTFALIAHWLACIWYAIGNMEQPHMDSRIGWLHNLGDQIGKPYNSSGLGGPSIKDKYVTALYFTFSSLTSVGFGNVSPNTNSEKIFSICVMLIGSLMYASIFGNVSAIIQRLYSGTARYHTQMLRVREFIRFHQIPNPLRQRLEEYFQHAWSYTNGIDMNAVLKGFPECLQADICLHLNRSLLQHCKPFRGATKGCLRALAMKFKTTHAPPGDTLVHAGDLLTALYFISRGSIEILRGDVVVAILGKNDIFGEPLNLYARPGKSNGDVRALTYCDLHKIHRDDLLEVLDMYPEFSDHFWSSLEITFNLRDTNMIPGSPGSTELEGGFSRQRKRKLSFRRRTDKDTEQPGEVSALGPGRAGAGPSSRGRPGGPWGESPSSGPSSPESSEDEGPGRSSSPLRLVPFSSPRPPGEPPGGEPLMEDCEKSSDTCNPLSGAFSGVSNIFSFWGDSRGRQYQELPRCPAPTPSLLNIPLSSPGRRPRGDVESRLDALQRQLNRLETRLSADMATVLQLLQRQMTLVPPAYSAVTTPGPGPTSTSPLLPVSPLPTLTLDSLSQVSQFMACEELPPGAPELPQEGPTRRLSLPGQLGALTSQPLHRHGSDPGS
# T13 sequence (P41143 whole entry): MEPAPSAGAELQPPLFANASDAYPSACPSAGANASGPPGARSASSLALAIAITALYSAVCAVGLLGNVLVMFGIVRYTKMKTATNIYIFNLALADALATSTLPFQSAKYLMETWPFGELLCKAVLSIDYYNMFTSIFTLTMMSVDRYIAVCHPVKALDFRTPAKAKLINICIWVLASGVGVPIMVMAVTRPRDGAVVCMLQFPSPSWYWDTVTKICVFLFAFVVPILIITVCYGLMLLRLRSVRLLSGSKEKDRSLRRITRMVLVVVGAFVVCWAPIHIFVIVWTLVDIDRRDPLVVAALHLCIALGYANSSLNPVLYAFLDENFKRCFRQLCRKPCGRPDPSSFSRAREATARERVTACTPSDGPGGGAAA
# T11 sequence (Q9Y5N1 whole entry): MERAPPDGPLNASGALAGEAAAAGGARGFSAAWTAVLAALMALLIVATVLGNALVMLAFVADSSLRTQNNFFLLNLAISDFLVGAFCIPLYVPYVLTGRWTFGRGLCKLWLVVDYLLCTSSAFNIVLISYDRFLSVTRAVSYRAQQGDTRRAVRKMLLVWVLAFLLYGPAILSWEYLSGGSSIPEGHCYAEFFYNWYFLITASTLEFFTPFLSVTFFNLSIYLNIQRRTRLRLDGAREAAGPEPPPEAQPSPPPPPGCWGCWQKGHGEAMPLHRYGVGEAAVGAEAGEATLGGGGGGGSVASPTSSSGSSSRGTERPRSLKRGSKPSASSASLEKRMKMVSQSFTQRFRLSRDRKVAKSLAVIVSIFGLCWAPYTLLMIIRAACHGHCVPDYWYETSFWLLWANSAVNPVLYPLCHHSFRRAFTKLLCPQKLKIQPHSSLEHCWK
# T3 sequence (P14867 28-456): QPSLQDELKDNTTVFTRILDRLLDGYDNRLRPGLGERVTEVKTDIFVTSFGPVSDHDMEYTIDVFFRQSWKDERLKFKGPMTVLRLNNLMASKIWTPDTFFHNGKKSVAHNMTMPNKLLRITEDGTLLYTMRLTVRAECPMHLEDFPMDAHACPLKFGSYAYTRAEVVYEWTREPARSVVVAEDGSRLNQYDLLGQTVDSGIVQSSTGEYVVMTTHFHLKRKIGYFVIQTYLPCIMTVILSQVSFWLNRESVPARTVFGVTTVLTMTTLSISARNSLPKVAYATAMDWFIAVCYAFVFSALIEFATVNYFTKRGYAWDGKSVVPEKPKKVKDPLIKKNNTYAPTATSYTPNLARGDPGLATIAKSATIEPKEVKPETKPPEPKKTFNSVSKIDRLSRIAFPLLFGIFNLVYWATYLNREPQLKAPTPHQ
# T3 sequence (P47870 25-512 limits assumed): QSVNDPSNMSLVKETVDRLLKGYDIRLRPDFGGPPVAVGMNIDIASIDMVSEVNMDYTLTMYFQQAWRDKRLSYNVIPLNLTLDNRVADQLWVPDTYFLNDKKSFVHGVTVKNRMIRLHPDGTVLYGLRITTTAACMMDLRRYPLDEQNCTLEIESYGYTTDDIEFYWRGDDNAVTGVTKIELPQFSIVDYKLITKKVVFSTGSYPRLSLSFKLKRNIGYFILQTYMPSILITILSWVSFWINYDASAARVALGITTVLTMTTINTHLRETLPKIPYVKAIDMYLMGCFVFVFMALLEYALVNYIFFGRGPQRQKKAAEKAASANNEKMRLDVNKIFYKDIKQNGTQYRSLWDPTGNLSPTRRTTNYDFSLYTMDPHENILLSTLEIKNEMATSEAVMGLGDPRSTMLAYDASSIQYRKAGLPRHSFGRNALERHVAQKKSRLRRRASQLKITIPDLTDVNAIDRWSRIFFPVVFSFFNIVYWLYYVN
# T3 sequence (P18507 40-475): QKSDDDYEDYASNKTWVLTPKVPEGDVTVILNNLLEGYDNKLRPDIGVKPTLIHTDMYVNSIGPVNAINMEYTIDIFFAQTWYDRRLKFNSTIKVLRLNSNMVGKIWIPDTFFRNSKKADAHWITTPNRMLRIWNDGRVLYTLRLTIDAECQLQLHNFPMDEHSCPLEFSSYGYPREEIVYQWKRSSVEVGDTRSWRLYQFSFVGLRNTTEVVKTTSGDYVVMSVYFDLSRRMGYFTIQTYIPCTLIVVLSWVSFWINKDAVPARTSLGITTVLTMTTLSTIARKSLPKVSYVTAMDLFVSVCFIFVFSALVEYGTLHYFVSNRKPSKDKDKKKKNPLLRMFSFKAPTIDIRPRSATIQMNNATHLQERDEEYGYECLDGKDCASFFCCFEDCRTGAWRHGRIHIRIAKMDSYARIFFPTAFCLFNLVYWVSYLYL
# T19 sequence (P07550 whole entry): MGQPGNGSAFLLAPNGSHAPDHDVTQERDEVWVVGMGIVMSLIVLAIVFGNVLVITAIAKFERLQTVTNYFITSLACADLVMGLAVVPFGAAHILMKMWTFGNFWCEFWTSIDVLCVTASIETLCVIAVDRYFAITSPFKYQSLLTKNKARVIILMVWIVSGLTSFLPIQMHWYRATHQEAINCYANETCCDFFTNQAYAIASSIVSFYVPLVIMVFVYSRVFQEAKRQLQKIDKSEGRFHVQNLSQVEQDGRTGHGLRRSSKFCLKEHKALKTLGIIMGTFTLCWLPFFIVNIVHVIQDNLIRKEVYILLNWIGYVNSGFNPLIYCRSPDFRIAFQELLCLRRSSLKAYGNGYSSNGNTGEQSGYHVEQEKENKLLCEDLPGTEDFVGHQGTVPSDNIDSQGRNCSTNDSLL
# T20 sequence (Q5BJF2 whole entry): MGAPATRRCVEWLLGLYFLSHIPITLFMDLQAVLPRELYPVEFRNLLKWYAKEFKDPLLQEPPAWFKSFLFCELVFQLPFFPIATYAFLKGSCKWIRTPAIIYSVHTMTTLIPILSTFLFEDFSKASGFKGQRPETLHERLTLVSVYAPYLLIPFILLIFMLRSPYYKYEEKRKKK
compound,measurement,setting,value
O=C(c1ccc(F)c(Cl)c1)N1CCC(F)(CNCCOc2ccccc2)CC1 [Compound 3],inhibition at 1 µM,D5,40%
same,inhibition at 0.01 µM,α2A,-5%
same,inhibition at 0.1 µM,α2A,21%
same,inhibition at 1 µM,α2A,66%
same,inhibition at 1 µM,"GABAA1 (α1,β2,γ2)",-18%
same,% Inhibition of Tail Current in hERG-CHO,"hERG channel; 0,1 µM",1.0%
same,% Inhibition of Tail Current in hERG-CHO,hERG channel; 1 µM,14.2%
same,% Inhibition of Tail Current in hERG-CHO,hERG channel; 10 µM,64.9%
same,inhibition at 1 µM,β3,-2%
same,inhibition at 0.01 µM,D3,12%
same,inhibition at 0.1 µM,D3,26%
same,inhibition at 1 µM,D3,69%
same,inhibition at 1 µM,µ (MOR),26%
same,inhibition at 1 µM,CB2,4%
same,inhibition at 1 µM,5-HT1D,48%
same,inhibition at 1 µM,5-HT6,-9%
same,inhibition at 1 µM,H3,-14%
same,inhibition at 1 µM,M5,3%
same,inhibition at 1 µM,δ (DOR),3%
same,inhibition at 1 µM,5-HT1B,-7%
same,inhibition at 1 µM,5-HT7,30%
same,inhibition at 1 µM,5-HT5A,-1%
same,inhibition at 1 µM,5-HT2A,3%
same,inhibition at 1 µM,SERT,8%
same,inhibition at 1 µM,β2,2%
same,inhibition at 0.01 µM,σ2,11%
same,inhibition at 0.1 µM,σ2,33%
same,inhibition at 1 µM,σ2,82%
same,inhibition at 1 µM,M1,-2%
"CNc1ccccc1OCCNCC1(F)CCN(C(=O)c2ccc(F)c(Cl)c2)CC1 [Compound 44, (3-Chloro-4-fluorophenyl)(4-fluoro-4-(((2-(2-(methylamino)phenoxy)ethyl)amino)methyl)piperidin-1-yl)methanone]",inhibition at 1 µM,D5,29%
same,inhibition at 1 µM,α2A,10%
same,inhibition at 1 µM,"GABAA1 (α1,β2,γ2)",-4%
same,% Inhibition of Tail Current in hERG-CHO,hERG channel; 1 µM,17.5%
same,inhibition at 1 µM,β3,-7%
same,inhibition at 1 µM,D3,42%
same,inhibition at 1 µM,µ (MOR),22%
same,inhibition at 1 µM,CB2,-5%
same,inhibition at 1 µM,5-HT1D,38%
same,inhibition at 1 µM,5-HT6,3%
same,inhibition at 1 µM,H3,-13%
same,inhibition at 1 µM,M5,-1%
same,inhibition at 1 µM,δ (DOR),-5%
same,inhibition at 1 µM,5-HT1B,0%
same,inhibition at 1 µM,5-HT7,11%
same,inhibition at 1 µM,5-HT5A,2%
same,inhibition at 1 µM,5-HT2A,-2%
same,inhibition at 1 µM,SERT,18%
same,inhibition at 1 µM,β2,-3%
same,inhibition at 0.01 µM,σ2,2%
same,inhibition at 0.1 µM,σ2,10%
same,inhibition at 1 µM,σ2,52%
same,inhibition at 1 µM,M1,-6%
"O=C(c1ccc(F)c(Cl)c1)N1CCC(F)(CNCCOc2cccc3[nH]ccc23)CC1 [Compound 56, (4-(((2-((1H-Indol-4-yl)oxy)ethyl)amino)methyl)-4-fluoropiperidin-1-yl)(3-chloro-4-fluorophenyl)methanone]",inhibition at 0.001 µM,D5; 1 nM,-10%
same,inhibition at 0.01 µM,D5; 10 nM,-3%
same,inhibition at 0.1 µM,D5; 100 nM,53%
same,inhibition at 1 µM,D5,91%
same,inhibition at 0.01 µM,α2A,-7%
same,inhibition at 0.1 µM,α2A,33%
same,inhibition at 1 µM,α2A,81%
same,inhibition at 1 µM,"GABAA1 (α1,β2,γ2)",-13%
same,% Inhibition of Tail Current in hERG-CHO,"hERG channel; 0,1 µM",0.3%
same,% Inhibition of Tail Current in hERG-CHO,hERG channel; 1 µM,6.4%
same,% Inhibition of Tail Current in hERG-CHO,hERG channel; 10 µM,21.1%
same,inhibition at 1 µM,β3,1%
same,inhibition at 0.001 µM,D3; 1 nM,41%
same,inhibition at 0.01 µM,D3,36%
same,inhibition at 0.1 µM,D3,85%
same,inhibition at 1 µM,D3,99%
same,inhibition at 0.01 µM,µ (MOR); 10 nM,10%
same,inhibition at 0.1 µM,µ (MOR); 100 nM,58%
same,inhibition at 1 µM,µ (MOR),88%
same,inhibition at 1 µM,CB2,1%
same,inhibition at 0.001 µM,5-HT1D; 1 nM,-14%
same,inhibition at 0.01 µM,5-HT1D; 10 nM,27%
same,inhibition at 0.1 µM,5-HT1D; 100 nM,80%
same,inhibition at 1 µM,5-HT6,1%
same,inhibition at 1 µM,H3,-17%
same,inhibition at 0.01 µM,M5; 10 nM,4%
same,inhibition at 0.1 µM,M5; 100 nM,-3%
same,inhibition at 1 µM,M5,54%
same,inhibition at 1 µM,δ (DOR),0%
same,inhibition at 0.01 µM,5-HT1B; 10 nM,1%
same,inhibition at 0.1 µM,5-HT1B; 100 nM,17%
same,inhibition at 1 µM,5-HT1B,63%
same,inhibition at 0.001 µM,5-HT7; 1 nM,5%
same,inhibition at 0.01 µM,5-HT7; 10 nM,32%
same,inhibition at 0.1 µM,5-HT7; 100 nM,68%
same,inhibition at 0.01 µM,5-HT5A; 10 nM,-18%
same,inhibition at 0.1 µM,5-HT5A; 100 nM,12%
same,inhibition at 1 µM,5-HT5A,53%
same,inhibition at 1 µM,5-HT2A,10%
same,inhibition at 1 µM,SERT,22%
same,inhibition at 1 µM,β2,9%
same,inhibition at 0.01 µM,σ2,-1%
same,inhibition at 0.1 µM,σ2,31%
same,inhibition at 1 µM,σ2,63%
same,inhibition at 1 µM,M1,-10%
